Key:
[1] = target: T1, human FPR2 (Homo sapiens, UniProt P25090); test: FPR2 cyclic adenosine monophosphate (cAMP) assay; assay type: cell-based; details: CHO cells overexpressing human FPR2; forskolin 5 μM; inhibition of cAMP production; HTRF; read-out: hFPR2 cAMP2 EC50
T1 sequence (P25090 1-351): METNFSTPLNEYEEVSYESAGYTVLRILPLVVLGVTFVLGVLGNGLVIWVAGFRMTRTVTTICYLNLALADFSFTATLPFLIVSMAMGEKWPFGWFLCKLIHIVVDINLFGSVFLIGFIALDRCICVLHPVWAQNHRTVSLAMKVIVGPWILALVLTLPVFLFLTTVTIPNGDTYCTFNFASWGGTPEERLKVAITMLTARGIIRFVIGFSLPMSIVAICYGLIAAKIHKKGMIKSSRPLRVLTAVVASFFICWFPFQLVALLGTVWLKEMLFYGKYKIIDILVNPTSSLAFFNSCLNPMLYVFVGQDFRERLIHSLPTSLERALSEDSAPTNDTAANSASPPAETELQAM
Outline: (§1)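 CHO/hFPR1 4,000 cells/well, forskolin 10 μM final; CHO/hFPR2 2,000 cells/well, forskolin 5 μM final. IBMX 200 μM, DMSO 1%, DPBS + Ca/Mg + 0.1% BSA, 30 min rt. HTRF cAMP; 4-PL fit.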

[2] = target: T2, human FPR1 (Homo sapiens, UniProt P21462); test: FPR1 cyclic adenosine monophosphate (cAMP) assay; assay type: cell-based; details: CHO cells overexpressing human FPR1; forskolin 10 μM; inhibition of cAMP production; HTRF; read-out: hFPR1 cAMP2 EC50
T2 sequence (P21462 1-350): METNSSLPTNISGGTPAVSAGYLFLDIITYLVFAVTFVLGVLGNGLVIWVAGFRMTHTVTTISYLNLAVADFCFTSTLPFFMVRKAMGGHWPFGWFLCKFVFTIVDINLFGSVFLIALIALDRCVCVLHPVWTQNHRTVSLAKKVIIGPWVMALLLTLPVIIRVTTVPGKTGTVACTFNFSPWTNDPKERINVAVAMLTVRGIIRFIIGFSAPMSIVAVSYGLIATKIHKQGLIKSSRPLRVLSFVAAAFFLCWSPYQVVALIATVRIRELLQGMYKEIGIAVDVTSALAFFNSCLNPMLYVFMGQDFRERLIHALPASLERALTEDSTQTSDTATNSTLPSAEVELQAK
Outline: as §1

| SMILES | EC50 [1] [nM] | EC50 [2] [nM] |
| --- | --- | --- |
| COc1cc(F)c(-c2c(NC(=O)c3ccc(OC(F)(F)F)cc3)c(=O)n(-c3cccc(C(F)(F)F)n3)n2C)c(F)c1 [Example 155, N-[5-(2,6-difluoro-4-methoxyphenyl)-1-methyl-3-oxo-2-[6-(trifluoromethyl)pyridin-2-yl]-2,3-dihydro-1H-pyrazol-4-yl]-4-(trifluoromethoxy)benzamide] | 9 | 2200 |
| COc1cc(F)c(-c2c(NC(=O)c3ccc(OC(F)F)cc3)c(=O)n(-c3cccc(C(F)(F)F)n3)n2C)c(F)c1 [Example 156, N-[5-(2,6-difluoro-4-methoxyphenyl)-1-methyl-3-oxo-2-[6-(trifluoromethyl)pyridin-2-yl]-2,3-dihydro-1H-pyrazol-4-yl]-4-(difluoromethoxy)benzamide] | 15 | 4000 |
| COc1cc(F)c(-c2c(NC(=O)c3ccc(OC(F)F)cc3)c(=O)n(-c3nc(C(F)(F)F)ccc3C#N)n2C)c(F)c1 [Example 157, N-{2-[3-cyano-6-(trifluoromethyl)pyridin-2-yl]-5-(2,6-difluoro-4-methoxyphenyl)-1-methyl-3-oxo-2,3-dihydro-1H-pyrazol-4-yl}-4-(difluoromethoxy)benzamide] | 4 | > 10000 |
| COc1cc(F)c(-c2c(NC(=O)c3ccc(OC(F)F)cc3)c(=O)n(-c3ncccc3OC(F)F)n2C)c(F)c1 [Example 158, N-[5-(2,6-difluoro-4-methoxyphenyl)-2-[3-(difluoromethoxy)pyridin-2-yl]-1-methyl-3-oxo-2,3-dihydro-1H-pyrazol-4-yl]-4-(difluoromethoxy)benzamide] | 13 | > 10000 |
| COc1cc(F)c(-c2c(NC(=O)c3ccc(OC(F)F)cc3)c(=O)n(-c3nc(C(F)(F)F)ccc3Br)n2C)c(F)c1 [Example 159, N-{2-[3-bromo-6-(trifluoromethyl)pyridin-2-yl]-5-(2,6-difluoro-4-methoxyphenyl)-1-methyl-3-oxo-2,3-dihydro-1H-pyrazol-4-yl}-4-(difluoromethoxy)benzamide] | 7 | > 10000 |
| COc1cc(F)c(-c2c(NC(=O)c3ccc(OC(F)F)cc3)c(=O)n(-c3nc(C4CC4)ccc3Br)n2C)c(F)c1 [Example 160, N-[2-(3-bromo-6-cyclopropylpyridin-2-yl)-5-(2,6-difluoro-4-methoxyphenyl)-1-methyl-3-oxo-2,3-dihydro-1H-pyrazol-4-yl]-4-(difluoromethoxy)benzamide] | 3 | > 10000 |
| COc1cc(F)c(-c2c(NC(=O)c3ccc(OC(F)F)cc3)c(=O)n(-c3nc(C4CC4)ccc3C#N)n2C)c(F)c1 [Example 161, N-[2-(3-cyano-6-cyclopropylpyridin-2-yl)-5-(2,6-difluoro-4-methoxyphenyl)-1-methyl-3-oxo-2,3-dihydro-1H-pyrazol-4-yl]-4-(difluoromethoxy)benzamide] | 4 | > 10000 |
| COc1cc(-n2c(=O)c(NC(=O)c3ccc(OC(F)F)cc3)c(-c3c(F)cc(OC)cc3F)n2C)nc(C(F)(F)F)c1 [Example 162, N-[5-(2,6-difluoro-4-methoxyphenyl)-2-[4-methoxy-6-(trifluoromethyl)pyridin-2-yl]-1-methyl-3-oxo-2,3-dihydro-1H-pyrazol-4-yl]-4-(difluoromethoxy)benzamide] | 12 | > 10000 |
| CCc1cccc(-n2c(=O)c(NC(=O)c3ccc(OC(F)F)cc3)c(-c3c(F)cc(OC)cc3F)n2C)n1 [Example 163, N-[5-(2,6-difluoro-4-methoxyphenyl)-2-(6-ethylpyridin-2-yl)-1-methyl-3-oxo-2,3-dihydro-1H-pyrazol-4-yl]-4-(difluoromethoxy)benzamide] | 4 | > 10000 |
| COc1cc(F)c(-c2c(NC(=O)c3ccc(Cl)cc3)c(=O)n(-c3ncccc3Cl)n2C)c(F)c1 [Example 164, 4-chloro-N-[2-(3-chloropyridin-2-yl)-5-(2,6-difluoro-4-methoxyphenyl)-1-methyl-3-oxo-2,3-dihydro-1H-pyrazol-4-yl]benzamide] | 15 | > 10000 |
| COc1cc(F)c(-c2c(NC(=O)c3ccc(OC(F)F)cc3)c(=O)n(-c3ncccc3Br)n2C)c(F)c1 [Example 165, N-[2-(3-bromopyridin-2-yl)-5-(2,6-difluoro-4-methoxyphenyl)-1-methyl-3-oxo-2,3-dihydro-1H-pyrazol-4-yl]-4-(difluoromethoxy)benzamide] | 15 | > 10000 |
| CCc1cccnc1-n1c(=O)c(NC(=O)c2ccc(OC(F)F)cc2)c(-c2c(F)cc(OC)cc2F)n1C [Example 166, N-[5-(2,6-difluoro-4-methoxyphenyl)-2-(3-ethylpyridin-2-yl)-1-methyl-3-oxo-2,3-dihydro-1H-pyrazol-4-yl]-4-(difluoromethoxy)benzamide] | 20 | > 10000 |
| COc1cc(F)c(-c2c(NC(=O)c3ccc(OC(F)(F)F)cc3)c(=O)n(-c3cccc(C4CC4)n3)n2C)c(F)c1 [Example 167, N-[2-(6-cyclopropylpyridin-2-yl)-5-(2,6-difluoro-4-methoxyphenyl)-1-methyl-3-oxo-2,3-dihydro-1H-pyrazol-4-yl]-4-(trifluoromethoxy)benzamide] | 4 | 460 |
| COc1cc(F)c(-c2c(NC(=O)c3ccc(OC(F)F)cc3)c(=O)n(-c3cccc(OC(F)F)n3)n2C)c(F)c1 [Example 168, N-[5-(2,6-difluoro-4-methoxyphenyl)-2-[6-(difluoromethoxy)pyridin-2-yl]-1-methyl-3-oxo-2,3-dihydro-1H-pyrazol-4-yl]-4-(difluoromethoxy)benzamide] | 12 | > 10000 |
| COc1cc(F)c(-c2c(NC(=O)c3ccc(OC(F)(F)F)cc3)c(=O)n(-c3cccc(OC(F)F)n3)n2C)c(F)c1 [Example 169, N-[5-(2,6-difluoro-4-methoxyphenyl)-2-[6-(difluoromethoxy)pyridin-2-yl]-1-methyl-3-oxo-2,3-dihydro-1H-pyrazol-4-yl]-4-(trifluoromethoxy)benzamide] | 15 | 1400 |
| COc1cc(F)c(-c2c(NC(=O)c3ccc(OC(F)(F)F)cc3)c(=O)n(-c3cccnc3C#N)n2C)c(F)c1 [Example 170, N-[2-(2-cyanopyridin-3-yl)-5-(2,6-difluoro-4-methoxyphenyl)-1-methyl-3-oxo-2,3-dihydro-1H-pyrazol-4-yl]-4-(trifluoromethoxy)benzamide] | 8 | > 10000 |
| COc1cc(F)c(-c2c(NC(=O)c3ccc(OC(F)F)cc3)c(=O)n(-c3ccccc3Cl)n2C)c(F)c1 [Example 171, N-[2-(2-chlorophenyl)-5-(2,6-difluoro-4-methoxyphenyl)-1-methyl-3-oxo-2,3-dihydro-1H-pyrazol-4-yl]-4-(difluoromethoxy)benzamide] | 12 | > 10000 |
| COc1cc(F)c(-c2c(NC(=O)c3ccc(OC(F)(F)F)cc3)c(=O)n(-c3ccccc3Cl)n2C)c(F)c1 [Example 172, N-[2-(2-chlorophenyl)-5-(2,6-difluoro-4-methoxyphenyl)-1-methyl-3-oxo-2,3-dihydro-1H-pyrazol-4-yl]-4-(trifluoromethoxy)benzamide] | 13 | 3300 |
| COc1cc(F)c(-c2c(NC(=O)c3ccc(OC(F)F)cc3)c(=O)n(-c3ccccc3C#N)n2C)c(F)c1 [Example 173, N-[2-(2-cyanophenyl)-5-(2,6-difluoro-4-methoxyphenyl)-1-methyl-3-oxo-2,3-dihydro-1H-pyrazol-4-yl]-4-(difluoromethoxy)benzamide] | 20 | > 10000 |
| COc1cc(F)c(-c2c(NC(=O)c3ccc(OC(F)(F)F)cc3)c(=O)n(-c3ccccc3C#N)n2C)c(F)c1 [Example 174, N-[2-(2-cyanophenyl)-5-(2,6-difluoro-4-methoxyphenyl)-1-methyl-3-oxo-2,3-dihydro-1H-pyrazol-4-yl]-4-(trifluoromethoxy)benzamide] | 7 | > 10000 |
| COc1cc(F)c(-c2c(NC(=O)c3ccc(OC(F)F)cc3)c(=O)n(-c3cccc(F)c3Cl)n2C)c(F)c1 [Example 175, N-[2-(2-chloro-3-fluorophenyl)-5-(2,6-difluoro-4-methoxyphenyl)-1-methyl-3-oxo-2,3-dihydro-1H-pyrazol-4-yl]-4-(difluoromethoxy)benzamide] | 25 | > 10000 |
| COc1cc(F)c(-c2c(NC(=O)c3ccc(OC(F)F)cc3)c(=O)n(-c3cc(Cl)ccc3Cl)n2C)c(F)c1 [Example 176, N-[2-(2,5-dichlorophenyl)-5-(2,6-difluoro-4-methoxyphenyl)-1-methyl-3-oxo-2,3-dihydro-1H-pyrazol-4-yl]-4-(difluoromethoxy)benzamide] | 9 | > 10000 |

Reference: patent publication US12577206B2 (BRISTOL-MYERS SQUIBB COMPANY, priority 2020, dated 2026)
